Assay results as given in patent US20240424131A1, “TARGETING NANOPARTICLES FOR THERAPY” (University of Pittsburgh - Of the Commonwealth System of …, priority 2021, published 2024).

System: CT26 cells
Assay: Transwell co-culture transcytosis, HUVECs and CT26 cells
Assay type: cell-based
Details: NPs applied to HUVECs in upper chamber

O=C(N/N=C/c1ccc(O)c(O)c1)c1cc2ccccc2cc1O [dynasore] was tested, and the “transfection of CT26 cells by Cy5.5-siRNA NPs in presence of endocytosis inhibitor” value was “significantly inhibited”.
